This is an account of results in article PMC3547732 (Chemistry Central Journal, 2012).

The subject of series [1] is Triton induced hyperlipidemia. Description: Hypolipidemic activity in Triton induced hyperlipidemia in rats. Format: in vivo, male Wistar rats. The conditions noted are these: for Total Cholesterol / Triglyceride: Triton treated rats, 30 mg/kg oral gavage 2 h before Triton i.p., plasma 18 h after triton injection. The procedure: The rats were housed under optimal laboratory conditions, maintained on 12 h light and dark cycle and had free access to food (Hindustan Lever Products, Kolkata, India) and water. Animals were acclimatized to laboratory conditions before the tests. All experiments were carried out between 0900 and 1700 h. The experimental protocols were approved by the Institutional Animal Ethics Committee and conducted according to the Indian National Science Academy guidelines for the use and care of animals. Fifty five male Wistar rats were divided into the following 11 groups containing 5 animals in each group: Atrovastain and various solvates were freshly suspended in 0.5% carboxymethyl cellulose and administered by oral gavage. Two hours later, all groups except control animals received intraperitonial injection of Triton (100 mg/kg). Eighteen hours after triton injection, blood was collected from tail vein. Plasma was separated and stored at −20°C for further biochemical analysis. Total cholesterol and triglyceride were analyzed in plasma samples using diagnostic kits as per manufacturer instructions.

The nature of series [2]: Enthalpy of solution by microreaction calorimetry. Format: physicochemical. Particulars: for Molar enthalpy of solution, Methanol ΔsolH (methanol) / Molar enthalpy of solution of Atorvastatin Calcium (ATC) (ΔsolH^1) in the solvent of the solvate / Molar enthalpy of solution in its own solvent, Solvates (ΔsolH^2): 25°C; for Molar enthalpy of solution in its own solvent, Solvates (ΔsolH^2): each solvate in its own solvent of solvation. The procedure: Molar enthalpy of solution (ΔHsol) was determined in phosphate buffer (pH8) as well as in methanol.
In order to determine the enthalpy associated with the solvation process the enthalpy of solution of a particular solvate was determined in its own solvent.
(3) ΔsolyH=ΔsolH^1−ΔsolH^2
Calorimetric studies were performed on Microreaction calorimeter obtained from Thermal Hazards Technology, UK. Two different solvents, viz, the phosphate buffer (pH 2) and methanol were used to determine the enthalpy of solution and the measurements were performed at 25°C. The size of sample used in this study ranged from 10 to 20 mg and was weighed (Sartorius Model CP225D) into a cylindrical glass tube covered with parafilm on one side. This cylindrical tube was submerged into the ampoule containing the solvent. A plunger with a cap was put from the open end of the tube. The same solvent was put into the reference ampoule. These were put into the sample and reference holes until both rest on the base of the holes. The apparatus was maintained at constant temperature at 25°C (±0.0005°C). The parafilm was shattered mechanically by means of plunger.

A short description of series [3]: Enthalpy of solution by microreaction calorimetry. In kind it is physicochemical. The conditions noted are these: 25°C.
A short description of series [4]: Desolvation of solvates by DSC and TGA. In kind it is physicochemical. Particulars: for Desolvation temperature: DSC desolvation endotherm maximum, 10°C/min; for Enthalpy of desolvation, ΔdesolvH calculated from equation 4: calculated from enthalpies of solution, heat capacities and enthalpy of vapourization; for Enthalpy of desolvation per mole of solvent (binding energy): equation 1 from DSC desolvation enthalpy and TGA mass loss. The source says:
The desolvation temperatures account for the stability of solvates as the desolvation temperature in all these forms is much higher than the boiling point of the corresponding solvent. The quantitative estimate of the stability of these solvates is established by determining the binding energy for the solvents in all the solvates using equation 1 where the percent mass loss measured over the TG desolvation step of each solvate (ΔmS%) was related to the enthalpy change calculated over the corresponding DSC desolvation endotherm (ΔHSexp).
(1) ΔHS=ΔHSexp×100Δms%×Ms
where ΔHS (J mol^-1) is the enthalpy of desolvation (or binding energy) per mole of the bound solvent, MS is the molecular mass of the solvent.
(4) ΔdesolyH=ΔsolnH^2−ΔsolnH^1−ΔCPTdesoly−25+1/2ΔyapH
. A mass between 2–8 mg was taken into the aluminium pan, covered with lid and sealed. DSC curves were obtained under a nitrogen purge of 50 mL per minute at a heating rate of 10°C per minute with the temperature range from 50-350°C.
Loss of solvent from the samples was characterized by TGA obtained by TA Instruments-Waters LLC, USA. TGA traces were recorded at heating rates of 10°C per minute under a nitrogen purge of 50 ml per minute. Samples with masses between 1–10 mg were analyzed using platinum pan. Mass loss (%) was calculated based on the mass of the original sample.

On to `CC(C)c1c(C(=O)Nc2ccccc2)c(-c2ccccc2)c(-c2ccc(F)cc2)n1CC[C@@H](O)C[C@@H](O)CC(=O)O` [ATC, Atorvastatin calcium, reference compound], for which the “lipid lowering in triton treated rats (total cholesterol and TG), in words” value in series [1] (30 mg/kg oral gavage) was “reduced lipid profile”. Also, the “Total Cholesterol” value in series [1] was determined as 198 mg/dL. In addition, the Triglyceride in series [1] worked out at 169 mg/dL. Besides, the “Molar enthalpy of solution, Methanol ΔsolH (methanol)” value in series [2] stood at 4.567 kcal/mol. The “Molar enthalpy of solution of Atorvastatin Calcium (ATC) (ΔsolH^1) in the solvent of the solvate” value in series [2] (solvent of Solvate I (isopropyl alcohol)) is -3.231 kcal/mol; in series [2] (solvent of Solvate II (THF)), 2.593 kcal/mol; in series [2] (solvent of Solvate III (ethanol)), 7.663 kcal/mol; in series [2] (solvent of Solvate IV (t-butanol)), 8.329 kcal/mol; in series [2] (solvent of Solvate V (methanol)) it was 3.908 kcal/mol; in series [2] (solvent of Solvate VI (acetone + ethanol)), 9.847 kcal/mol. Moreover, the figures for the “Molar enthalpy of solution of Atorvastatin Calcium (ATC) (ΔsolH^1) in the solvent of the solvate” value in series [2] (solvent of Solvate VII (ethanol + water)) and in series [2] (solvent of Solvate VIII (1-butanol)) were 26.886 kcal/mol and 3.193 kcal/mol, respectively. In addition, in series [3], the “Molar enthalpy of solution, Phosphate buffer (pH8) ΔsolH” value (from here on “Molar enthalpy … (pH8) ΔsolH”) was 21.89 kJ mol^-1.
As for `CC(C)c1c(C(=O)Nc2ccccc2)c(-c2ccccc2)c(-c2ccc(F)cc2)n1CC[C@@H](O)C[C@@H](O)CC(=O)[O-].CC(C)c1c(C(=O)Nc2ccccc2)c(-c2ccccc2)c(-c2ccc(F)cc2)n1CC[C@@H](O)C[C@@H](O)CC(=O)[O-].CCO.[Ca+2]` [Solvate III], in series [1], the “Total Cholesterol” value was 203 mg/dL and the Triglyceride turned out to be 172 mg/dL. Moreover, in series [2], the “Molar enthalpy of solution in its own solvent, Solvates (ΔsolH^2)” value is -1.82 kcal/mol and the “Molar enthalpy of solution, Methanol ΔsolH (methanol)” value came out at 0.729 kcal/mol. The Desolvation temperature in series [4] (listed as III) was 90(±8) °C. Also, in series [4] (listed as Solvate- III), the Desolvation temperature came to 90.42 °C. Also, in series [4], the “Enthalpy of desolvation, ΔdesolvH calculated from equation 4” value was 8.219 kcal/mol; the “Enthalpy of desolvation per mole of solvent (binding energy)” value was 15.14 kcal/mol; the “Enthalpy of desolvation, ΔdesolvH from DSC” value amounted to 10.68 kcal/mol. The “Molar enthalpy … (pH8) ΔsolH” value in series [3] is 5.46 kJ mol^-1.
Consider `C1CCOC1.CC(C)c1c(C(=O)Nc2ccccc2)c(-c2ccccc2)c(-c2ccc(F)cc2)n1CC[C@@H](O)C[C@@H](O)CC(=O)[O-].CC(C)c1c(C(=O)Nc2ccccc2)c(-c2ccccc2)c(-c2ccc(F)cc2)n1CC[C@@H](O)C[C@@H](O)CC(=O)[O-].[Ca+2]` [Solvate II], for which, in series [1], the “Total Cholesterol” value was found to be 201 mg/dL and the Triglyceride is 170 mg/dL. The “Enthalpy of solvation ΔsolvH” value in series [2] (calculated by equation 3 from enthalpies of solution of drug and solvate in the solvent of solvation) was -5.299 kcal/mol. In series [2], the “Molar enthalpy of solution in its own solvent, Solvates (ΔsolH^2)” value was -2.706 kcal/mol and the “Molar enthalpy of solution, Methanol ΔsolH (methanol)” value was 2.38 kcal/mol. For the same molecule, the Desolvation temperature in series [4] (listed as Solvate- II) amounted to 98.89 °C. For the same molecule, the Desolvation temperature in series [4] (listed as solvate II) is 90(±8) °C. Moreover, in series [4], the “Enthalpy of desolvation, ΔdesolvH calculated from equation 4” value is 13.66 kcal/mol; the “Enthalpy of desolvation per mole of solvent (binding energy)” value was 13.19 kcal/mol; the “Enthalpy of desolvation, ΔdesolvH from DSC” value worked out at 12.3 kcal/mol. Besides, the “Molar enthalpy … (pH8) ΔsolH” value in series [3] is listed as 14.31 kJ mol^-1.
